What was measured:
[1] = target: T1, Mouse SIR2 enzyme (SIR2α) (Mus musculus, UniProt Q923E4); test: SIR2 deacetylation assay (p53 peptide, HPLC of ADPR and 3′-O-acetyl-ADPR); format: biochemical
T1 construct: purchased Upstate Group
T1 sequence (Q923E4 1-737): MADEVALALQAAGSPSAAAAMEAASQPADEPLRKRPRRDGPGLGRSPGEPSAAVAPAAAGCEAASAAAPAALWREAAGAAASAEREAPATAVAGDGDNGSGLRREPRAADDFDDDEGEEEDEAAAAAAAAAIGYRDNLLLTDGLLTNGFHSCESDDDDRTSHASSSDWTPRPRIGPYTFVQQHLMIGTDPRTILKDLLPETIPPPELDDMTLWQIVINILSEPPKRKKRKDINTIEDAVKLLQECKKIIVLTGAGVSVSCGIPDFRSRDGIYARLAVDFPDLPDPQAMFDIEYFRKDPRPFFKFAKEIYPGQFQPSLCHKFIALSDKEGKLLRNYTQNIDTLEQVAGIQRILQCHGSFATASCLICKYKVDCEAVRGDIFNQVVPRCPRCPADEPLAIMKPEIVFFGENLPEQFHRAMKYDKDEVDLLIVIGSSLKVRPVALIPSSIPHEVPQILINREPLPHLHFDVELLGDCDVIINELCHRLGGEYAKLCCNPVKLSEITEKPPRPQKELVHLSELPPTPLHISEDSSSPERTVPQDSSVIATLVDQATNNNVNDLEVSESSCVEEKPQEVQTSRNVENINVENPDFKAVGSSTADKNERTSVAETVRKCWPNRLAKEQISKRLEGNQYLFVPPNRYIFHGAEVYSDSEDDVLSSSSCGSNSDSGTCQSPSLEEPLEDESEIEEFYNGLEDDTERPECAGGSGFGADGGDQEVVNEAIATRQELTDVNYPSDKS
Method: (§1) After 2 hours, aliquots of 10 μL removed at 0, 30, 60, 90 and 120 min. Each aliquot was combined with 50 μL 50 mM ammonium acetate pH 5.0 to quench and assayed by HPLC for deacetylation products and NAD^+. The chromatograms (260 nm) were obtained using 50 mM ammonium acetate pH 5.0 as eluant on a semi-preparative Waters C-18 column (2.0 mL/min flow rate). Peaks for ADPR and 3′-O-Acetyl-ADPR were quantified by integration. The peak for NAD^+ was collected and radiation counted.
(§2) Reactions were as above but base reactions contained 5 mM of pyrazinamide, isonicotinamide, thionicotinamide, or benzamide. Reactions were carried out (2 hours for AF2 and yeast enzymes and 3 hours for mouse enzyme) at 37° C. and quenched by addition of 80 μL 50 mM ammonium acetate pH 5.0. Product formation was quantified by HPLC. […] Rates were compared with controls lacking added base.

Yeast SIR2p = target: T2, Yeast SIR2p (Saccharomyces cerevisiae, UniProt P06700); test: as above; format: biochemical
T2 construct: made in house
Method: as §1, §2

T2 sequence (P06700 whole entry): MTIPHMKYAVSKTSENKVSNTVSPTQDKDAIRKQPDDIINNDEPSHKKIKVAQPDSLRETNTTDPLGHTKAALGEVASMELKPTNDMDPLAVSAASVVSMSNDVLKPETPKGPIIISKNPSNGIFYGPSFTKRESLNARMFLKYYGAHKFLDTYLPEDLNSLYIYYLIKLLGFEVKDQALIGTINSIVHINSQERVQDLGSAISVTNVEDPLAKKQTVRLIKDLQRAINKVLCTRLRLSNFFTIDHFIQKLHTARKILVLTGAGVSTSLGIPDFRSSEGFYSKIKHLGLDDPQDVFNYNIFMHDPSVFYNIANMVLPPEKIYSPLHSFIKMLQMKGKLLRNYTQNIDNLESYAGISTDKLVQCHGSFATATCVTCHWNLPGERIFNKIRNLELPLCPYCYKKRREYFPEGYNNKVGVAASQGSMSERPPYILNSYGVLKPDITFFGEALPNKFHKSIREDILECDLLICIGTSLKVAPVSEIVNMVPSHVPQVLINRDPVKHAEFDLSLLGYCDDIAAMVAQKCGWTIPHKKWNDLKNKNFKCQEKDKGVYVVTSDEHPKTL

`NC(=O)c1ccncc1` [Isonicotinamide] showed an inhibition at 5000 µM [1] of 18%, an inhibition at 5000 µM (Yeast SIR2p) of 0% and an inhibition at 42000 µM (Yeast SIR2p; pH 7.6) of 5%.

Reference: patent US8835467B2, “SIR2 regulation” (Albert Einstein College of Medicine of Yeshiva University, priority 2003, dated 2014)
